This is an account of results in ChEMBL document CHEMBL4265932, “Advances in diarylpyrimidines and related analogues as HIV-1 nonnucleoside reverse transcriptase inhibitors” (Eur J Med Chem, 2018).

SMILES strings stand for the structures.

A short description of data set [1]: Selectivity index, ratio of CC50 for human MT4 cells to EC50 for wild-type HIV1 3B reverse transcriptase infected in human MT4 cells. In kind it is toxicity, cell-based. Conditions: read-out: Ratio CC50/EC50.
Data set [2] relates to Human immunodeficiency virus 1. In words: Antiviral activity against wild-type HIV1 infected in human TZM-bl cells pretreated with cells for 30 mins followed by viral infection and measured after 48 hrs by luciferase reporter gene assay. In kind it is functional, organism-based. Conditions: Human immunodeficiency virus 1, TZM-bl.
Data set [3] is described as follows: Selectivity index, ratio of CC50 for human TZM-bl cells to EC50 for wild-type HIV1 infected in human TZM-bl cells. In kind it is toxicity, cell-based. Conditions: read-out: Ratio CC50/EC50.
For data set [4], the target named is T1, Human immunodeficiency virus type 1 reverse transcriptase (Human immunodeficiency virus 1, UniProt Q72547, K103N/Y181C). In words: Inhibition of HIV1 RES056 reverse transcriptase K103N/Y181C double mutant.
For data set [5], the target named is T2, Human immunodeficiency virus type 1 reverse transcriptase (Human immunodeficiency virus 1, UniProt Q72547). In words: Inhibition of wild-type HIV1 3B reverse transcriptase.
Data set [6] concerns the target Human immunodeficiency virus type 1 reverse transcriptase (Human immunodeficiency virus 1, UniProt Q72547, Y181C). In words: Inhibition of recombinant HIV1 reverse transcriptase Y181C mutant.
Data set [7] has as its target Human immunodeficiency virus type 1 reverse transcriptase (Human immunodeficiency virus 1, UniProt Q72547, Y188L). In words: Inhibition of recombinant HIV1 reverse transcriptase Y188L mutant.
The target of data set [8] is Human immunodeficiency virus type 1 reverse transcriptase (Human immunodeficiency virus 1, UniProt Q72547, L100I). In words: Inhibition of recombinant HIV1 reverse transcriptase L100I mutant.
Data set [9] concerns the target Human immunodeficiency virus type 1 reverse transcriptase (Human immunodeficiency virus 1, UniProt Q72547, K103N). In words: Inhibition of recombinant HIV1 reverse transcriptase K103N mutant.
In data set [10] the target is Human immunodeficiency virus type 1 reverse transcriptase (Human immunodeficiency virus 1, UniProt Q72547, K103N/L100I). In words: Inhibition of recombinant HIV1 reverse transcriptase L100I/K103N double mutant.
Data set [11] deals with T1, Human immunodeficiency virus type 1 reverse transcriptase. In words: Inhibition of recombinant HIV1 reverse transcriptase K103N/Y181C double mutant.
In data set [12] the target is T2, Human immunodeficiency virus type 1 reverse transcriptase. In words: Inhibition of HIV1 reverse transcriptase.

As to `N#Cc1ccc(Nc2nccc(Oc3ccc4cc(C#N)ccc4c3Br)n2)cc1`, the selectivity ratio in data set [1] turned out to be 181000.
`Cc1cc(/C=C/C#N)cc(C)c1Nc1ccc(F)c(Nc2ccc(C#N)cc2)n1`: the half-maximal effective concentration (EC50) in data set [2] came to 1.6 nM. In addition, the selectivity ratio in data set [3] came out at 62500.
The corresponding values for `Cc1cc(C#N)cc(C)c1Nc1ncc(F)c(Nc2ccc(C#N)cc2)n1` are 2.8 nM and 36000.
The corresponding values for `Cc1cc(/C=C/C#N)cc(F)c1Nc1ccc(F)c(Nc2ccc(C#N)cc2)n1` are 1 nM and more than 100000.
With `Cc1cc(/C=C/C#N)cc(C)c1Nc1ncc(F)c(Nc2ccc(C#N)cc2)n1`, the half-maximal effective concentration (EC50) in [2] is 0.9 nM. In addition, the selectivity ratio in data set [3] is more than 42000.
Consider `N#Cc1ccc(Nc2nccc(/C(=N\N)c3ccccc3Br)n2)cc1`, for which the results for the concentration giving a half-maximal response (EC50) in data set [4] and in [5] were more than 9200 nM and 1.7 nM, respectively.
`N#Cc1ccc(Nc2nccc(Oc3ccc4ccccc4c3Br)n2)cc1`: in [1], the selectivity ratio was 65600.
As for `Cc1cc(C)c(Nc2ccnc(Nc3ccc(C(N)=O)cc3)n2)c(C)c1`, the half-maximal inhibitory concentration (IC50) is more than 10000 nM in [6]; 63.1 nM in data set [5]; more than 10000 nM in data set [7]; more than 10000 nM in data set [8]; more than 10000 nM in data set [9].
For the compound `N#Cc1ccc(Nc2nccc(/C(=N\N)c3ccc4ccccc4c3)n2)cc1`, the EC50 in data set [4] turned out to be 8400 nM; in data set [5], 8.4 nM.
Consider `Cc1cc(C)c(Nc2ccnc(Nc3ccc(Cl)cc3)n2)c(C)c1`, for which the IC50 in data set [6] was 79.4 nM; in [5], 3.16 nM; in [10], more than 10000 nM; in [7], 2510 nM; in data set [8] it was 200 nM; in [9], 25.1 nM.
Turning to `Cc1cc(C)c(Nc2ccnc(Nc3ccc(C#N)cc3)n2)c(C)c1` [DAPIVIRINE], the IC50 was 7.94 nM in data set [6]; 39.8 nM in data set [11]; 1 nM in [5]; more than 10000 nM in data set [10]; 39.8 nM in [7]; 15.8 nM in [8]. Further, in data set [9], the concentration for half-maximal inhibition (IC50) was 3.98 nM.
In turn, `CC(=O)c1ccc(C)cc1NC(C(N)=O)c1c(Cl)cccc1Cl` (stereo not drawn) [LOVIRIDE] yielded an EC50 in [12] of 13 nM.
